From article PMC4877593, “Design and Synthesis of Potent in Vitro and in Vivo Anticancer Agents Based on 1-(3′,4′,5′-Trimethoxyphenyl)-2-Aryl-1H-Imidazole” (Scientific Reports, 2016)
Like-named read-outs stand apart in the source and are kept apart here.

Columns and labels:
bovine brain tubulin = experiment: Inhibition of tubulin polymerization (turbidimetry); assay type: biochemical
Protocol: To evaluate the effect of the compounds on tubulin assembly in vitro[22], varying concentrations of compounds were preincubated with 10 μM bovine brain tubulin in glutamate buffer at 30 °C and then cooled to 0 °C. After addition of 0.4 mM GTP (final concentration), the mixtures were transferred to 0 °C cuvettes in a recording spectrophotometer equipped with an electronic temperature controller and warmed to 30 °C. Tubulin assembly was followed turbidimetrically at 350 nm. […] The ability of the test compounds to inhibit colchicine binding to tubulin was measured as described, except that the reaction mixtures contained 1 μM tubulin, 5 μM [^3H]colchicine and 1 or 5 μM test compound.

Jurkat [1] = experiment: In vitro antiproliferative activity (MTT), Jurkat; assay type: cell-based; conditions: Homo sapiens, tumor cell proliferation, 72 h, mean ± SE
Protocol: (§1) Human T-cell leukemia (CCRF-CEM and Jurkat) and human B-cell leukemia (SEM) cells were grown in RPMI-1640 medium (Gibco, Milano, Italy). Breast adenocarcinoma (MCF7), human cervix carcinoma (HeLa), and human colon adenocarcinoma (HT-29) cells were grown in DMEM medium (Gibco, Milano, Italy), all supplemented with 115 units/mL penicillin G (Gibco, Milano, Italy), 115 μg/mL streptomycin (Invitrogen, Milano, Italy), and 10% fetal bovine serum (Invitrogen, Milano, Italy). Stock solutions (10 mM) of the different compounds were obtained by dissolving them in dimethyl sulfoxide (DMSO). Individual wells of a 96-well tissue culture microtiter plate were inoculated with 100 μL of complete medium containing 8 × 10^3 cells. The plates were incubated at 37 °C in a humidified 5% CO2 incubator for 18 h prior to the experiments. After medium removal, 100 μL of fresh medium containing the test compound at different concentrations was added to each well in triplicate and incubated at 37 °C for 72 h. The percentage of DMSO in the medium never exceeded 0.25%. This was also the maximum DMSO concentration in all cell-based assays described below. […] Different concentrations of the test compounds were added, and viability was determined 72 h later by the MTT test. For cytotoxicity evaluations in resting PBL cultures, non-adherent cells were resuspended (5 × 10^5 cells/mL) and treated for 72 h with the test compounds, as described above.

HeLa [2] = experiment: Mitochondrial membrane potential (JC-1), HeLa; assay type: cell-based, human; conditions: HeLa, 50, 100 and 250 nM; time- and concentration-dependent
Protocol: (§2) Mitochondria play an essential role in the propagation of apoptosis. It is well established that, at an early stage, apoptotic stimuli alter the mitochondrial transmembrane potential (Δψmt). Δψmt was monitored by the fluorescence of the dye JC-1. […] This occurred in a time- and concentration-dependent fashion, and, in both cell lines, a significant increase was observed after a 6 h treatment. The disruption of Δψmt is associated with the appearance of annexin-V positivity in the treated cells when they are in an early apoptotic stage. […] Cells were treated with the indicated concentration of compound for 24 or 48 h and then stained with the fluorescent probe JC-1 for analysis of mitochondrial potential or H2-DCFDA for the evaluation of ROS levels. Cells were then analyzed by flow cytometry as described in the experimental section.

Jurkat [3] = experiment: Mitochondrial membrane potential (JC-1), Jurkat; assay type: cell-based, human; conditions: Jurkat, 50, 100 and 250 nM; time- and concentration-dependent
Protocol: as §2

Jurkat [4] = experiment: Annexin-V/PI apoptosis assay, Jurkat; assay type: cell-based, human; conditions: 24 h, lowest concentration used (50 nM)
Protocol: To evaluate the induction of apoptosis by compound 4o in two cell lines (HeLa and Jurkat), we used an annexin-V/PI assay. Dual staining for annexin-V and with PI permits discrimination between live cells (annexin-V^−/PI^−), early apoptotic cells (annexin-V^+/PI^−), late apoptotic cells (annexin-V^+/PI^+) and necrotic cells (annexin-V^−/PI^+).
Cell death was determined by flow cytometry of cells double stained with annexin V/FITC and PI. The Coulter Cytomics FC500 (Beckman Coulter) was used to measure the surface exposure of phosphatidyl serine on apoptotic cells according to the manufacturer’s instructions (Annexin-V Fluos, Roche Diagnostics).

Jurkat cells = experiment: Cell cycle distribution by flow cytometry (PI), Jurkat; assay type: cell-based, human; conditions: 24 h treatment
Protocol: The effects of a 24 h treatment with different concentrations of 4o on cell cycle progression in Jurkat, and HeLa cells were determined by flow cytometry, following propidium iodide (PI) staining of the cells (Fig. 4, Panels A,B). […] In the HeLa cells, the G2/M block was accompanied by a significant reduction of both G1 and S phase cells. In order to determine whether 4o was able to block cells at the mitotic phase (M), cells were stained with an immunofluorescent antibody to p-histone H3, a well known mitotic marker, as well as PI, and analyzed by flow cytometry. As shown in Fig. 4 (Panel C), in which representative histograms are presented, Hela cells arrested in M phase by treatment with 4o are readily distinguished from G2 cells by the higher level of p-histone H3. In particular, treatment with 4o induced an increase in the percentage of mitotic cells from the 2% observed in untreated cells to about 30% with both 50 and 100 nM 4o at 24 h (Fig. 4, Panel D).
5 × 10^5 HeLa or Jurkat cells were treated with different concentrations of the test compounds for 24 h. After the incubation period, the cells were collected, centrifuged, and fixed with ice-cold ethanol (70%). […] Samples were analyzed on a Cytomic FC500 flow cytometer (Beckman Coulter). DNA histograms were analyzed using MultiCycle for Windows (Phoenix Flow Systems).

HeLa [5] = experiment: In vitro antiproliferative activity (MTT), HeLa; assay type: cell-based; conditions: Homo sapiens, tumor cell proliferation, 72 h, mean ± SE
Protocol: as §1

How did the IC50 (bovine brain tubulin; repeated beside the calculated energies, read-out: inhibition of tubulin polymerization IC50 (Table 4)) turn out when CCOc1ccc(-c2nccn2-c2cc(OC)c(OC)c(OC)c2)cc1Cl [Compound 4o, 2-(3′-Chloro-4′-ethoxyphenyl)-1-(3′,4′,5′-trimethoxyphenyl)-1H-imidazole] was run?
The IC50 was 870 nM.

What about the IC50 (bovine brain tubulin; tubulin at 10 μM, 20 min incubation, read-out: Tubulin assembly IC50 ± S.D.) of the same compound?
The IC50 was 870 nM.

And the IC50 (Jurkat [1])?
The IC50 was 0.9 ± 0.2 nM.

And the “percentage of cells with low Δψmt (JC-1)” value (HeLa [2])?
The value was “remarkable increase”.

What about the “percentage of cells with low Δψmt (JC-1)” value (Jurkat [3]) of the same compound?
The value was “remarkable increase”.

And the annexin-V positive cells (Jurkat [4])?
Its annexin-V positive cells is “significant accumulation of annexin-V positive cells”.

What about the “lowest concentration with a rise in G2/M cells” value (Jurkat cells) of the same compound?
Its value is 25 nM.

What about the IC50 (HeLa [5]) of the same compound?
Its IC50 is 3.8 ± 0.7 nM.
